Key:
Jurkat-D3B cells = assay: SDF-1α induced migration of Jurkat-D3B cells expressing sstr2; type: cell-based, human
Experimental: Methods: Total mRNA was prepared from Panc-1 cells (a human pancreas cell line which is well known to express high levels of sstr2) using the RNAqueous 4PCR kit (Ambion, Cat code #1914) in accordance with the manufacturer's instructions. The mRNA was then reverse transcribed (using the RETROscript kit; Ambio) to yield a cDNA preparation. A full length cDNA of the sstr2 gene was then obtained by PCR (using a Peltier PTC-200 thermal cycler using the following cycle times and conditions: 94° C. for 2 min, followed by 30 cycles of 94° C., for 30 sec, 55° C. for 30 sec, 72° C. for 1 min and finally 72° C. for 10 min), and isolated by preparative gel electrophoresis. The sequence of the sstr2 cDNA was confirmed by sequencing. The sstr2 cDNA was treated with EcoRI and Xhol to generate sticky ends, which allowed directional cloning into the polylinker of the plasmid pcDNA3.1+ (Invitrogen) followed by ligation (100 ligation reactions were run with 400 T4 DNA ligase (New England Biolabs) and the maximal amounts of DNA with an insert:plasmid ratio of 3:1 in ligase buffer incubated overnight at 13° C.). […]
A number of individual cell lines were obtained in this way, which expressed significant levels of sstr2 on the cell surface, detected by flow cytometry using the human-sstr2 antibody (Sigma, 50694; see Example 3 for details of the flow cytometry protocol used). […]

fetal rat pituicytes = assay: Rat pituicyte GH suppression assay; type: cell-based
Source text: Two different assays for “classical” sstr2 functions were adopted: (1) cultured foetal rat pituitary cells secreted growth hormone which is inhibited by sstr2 agonists in a dose-dependent fashion and (2) selected glucose-sensitive sub-clones of the human Panc-1 cell line secrete insulin which is inhibited by sstr2 agonists in a dose-dependent fashion.
Methods: Cultures of fetal rat pituicytes were established exactly as previously described (Murray et al. (2004) J. Clin. Endocrinol. Metab. 89:3027-32) by enzymatic dispersion. After 48 hrs in low glucose DMEM plus 10% FCS, cells in 48 well plates (5×10^4 cells per well) were washed for 4 hrs in serum-free DMEM and then incubated with test agents at various concentrations for a further 24 hrs in serum-free DMEM. At the end of this period, the conditioned medium was harvested, any cell debris removed by centrifugation and assayed for GH using a commercially available ELISA (Linco; cat# EZRMGH-45K) in accordance with the manufacturer's instructions.
Results were reported as the mean±SD, expressed as the fold change from cells in the presence of vehicle only.

[1] = tested on: rat peripheral blood leukocytes; assay: Rat chemokine-induced PBMC migration assay; type: cell-based; conditions: Table 3
Jurkat T cells = assay: SDF-1α induced migration of parental Jurkat T cells; type: cell-based, human
Experimental: Results: The level of the SDF-1α, receptor CXCR4 was similar on Jurkat-D3B and the parental Jurkat T cell line. Furthermore, the Jurkat-D3B cells responded to SDF-1α in a Transwell® chemotaxis assay (see Example 1 for the methodology employed) over a similar concentration range to the parental cell line.
Jurkat T cells and Jurkat-D3B cells were induced to migrate in response to 100 ng/ml SDF-1α (R&D systems; the concentration of SDF-1α which induced maximal cell migration in both lines). The BSCI BN83250 was then added at various concentrations between 0 nM and 1000 nM (each in triplicate) to both the upper and lower compartments (at the same concentration in each compartment, so as not to create a gradient of BSCI concentration). DMSO (1% final concentration) was used as the vehicle, and was present in all wells at equal concentration.

Oral bioavailability = conditions: in vivo

Compound: CC(C)(C)C(=O)N[C@H]1CCCNC1=O [Valerolactam, (S)-3-(2′,2′-dimethylpropionoylamino)-tetrahydropyridin-2-one]
- Inhibition of Jurkat-D3B migration, in words (Jurkat-D3B cells): sensitive to inhibition
- Inhibition of GH release, in words (fetal rat pituicytes): inhibited GH release only at much higher concentrations
- Emax ([1]; Rattus norvegicus, Leukocyte, read-out: Rat chemokine-induced PBMC migration assay Max effect): 100%

Compound: (S)-3-(2′,2′-dimethyldodecanoyl)amino-caprolactam [BN83250]
- Inhibition of SDF-1α induced migration of Jurkat T cells, in words (Jurkat T cells): little or no effect
- Inhibition of GH release, in words (fetal rat pituicytes): inhibited GH release only at much higher concentrations
- EC50 (fetal rat pituicytes; Table 3, read-out: Rat pituicyte GH suppression assay ED50): 320 nM
- Rat pituicyte GH suppression assay Max effect (fetal rat pituicytes; Table 3, suppression compared to vehicle): 63%
- Rat chemokine-induced PBMC migration assay Max effect [1]: 100%
- Oral bioavailability, in words (Oral bioavailability): only poorly orally bioavailable

Source: patent US20120053076A1, “METHODS FOR IDENTIFICATION” (Cambridge Enterprise Limited, priority 2009, published 2012)
